What was measured:
Format in all cases: physicochemical
Anti-solvent addition = details: Compound A
Description: Anti-solvent addition. A total of 12 anti-solvent addition experiments were carried out. […] The obtained precipitate was isolated for XRPD analysis.
Anti-solvent addition Compound A. A total of 14 anti-solvent addition experiments were carried out. […] The obtained precipitate was isolated for XRPD analysis.

[1] = Slurry conversion experiments (XRPD of isolated solids); details: for Slurry conversion result (XRPD form): different solvent systems
Description: Slurry conversion experiments were conducted at RT in different solvent systems. About 15˜20 mg of freebase starting material (Compound 1) was suspended in 0.5 mL of solvent in an HPLC vial. Solids were isolated for XRPD analysis after magnetically stirring at RT.
Slurry at 5°. Slurry conversion experiments were conducted at 5° C. in different solvent systems. About 15˜20 mg of freebase starting material (Compound 1) was suspended in 0.5 mL of solvent in an HPLC vial. Solids were isolated for XRPD analysis after magnetically stirring at 5° C.
Slurry at 50°. Slurry conversion experiments were conducted at 50° C. in different solvent systems. About 20 mg of freebase starting material (Compound 1) was suspended in 0.5 mL of solvent in an HPLC vial. Solids were isolated for XRPD analysis after magnetical stirring at 50° C.
Slurry at RT for Compound A. Slurry conversion experiments were conducted at RT in different solvent systems. […] Solids were isolated for XRPD analysis after magnetic stirring at RT.
Slurry at 50° for Compound A. Slurry conversion experiments were conducted at 50° C. in different solvent systems. […] Solids were isolated for XRPD analysis after magnetic stirring at 50° C.

[2] = Heating under N2 protection (VT-XRPD), form change; details: heating to 100° C. under N2 protection, cooled down and exposed to ambient conditions; listed as adipate Type A
Description: Compound B Form A was obtained from an acetone system and the sample was air dried at RT. […] (peak temperature) before the possible overlapped peak with peak temperature at 156.3° C. (FIG. 12). Based on the integrals, the stoichiometric ratio of fumaric acid:freebase was determined to be 1.03. A peak of acetone was observed and approximately 0.49 molar acetone (4.4 wt %) was detected. The HPLC purity of Compound B Form A was determined to be 93.56 area %. […] Around 0.39 molar acetone (3.5 wt %) was still detected. One endotherm at 58.7° C. and an overlapped peak with peak temperature at 157.1° C. were still observed on the sample obtained after heating. The first endotherm might be caused by re-adsorption of moisture. Since ˜3.5 wt % acetone was still detected from NMR, Compound B Form A is expected to be an acetone/H2O co-solvate. […]

Slow evaporation = details: Compound A, evaporation at RT
Description: Slow evaporation. Slow evaporation experiments were performed under 10 conditions. Briefly, about 15˜20 mg of freebase starting material (810935-01-A) was dissolved in 0.5˜1.0 mL of solvent in a 3-mL glass vial.
Slow evaporation Compound A. Slow evaporation experiments were performed under seven conditions.

[3] = VH-XRPD analysis / transitions of forms at varying relative humidity; details: ambient humidity levels 40%
From the text: FIG. 19. The sample then reverts to the original form upon reaching 30% RH. […] Transitions of Forms of Compound A at varying RH.

Liquid vapor diffusion = details: Compound A, RT
Description: Liquid vapor diffusion. Liquid vapor diffusion experiments were conducted in different solvent systems. […] This solution was then placed into a 20-mL vial with 3 mL of corresponding anti-solvent. The 20-mL vial was sealed with a cap and kept at RT allowing sufficient time for organic vapor to interact with the solution. The precipitates were isolated for XRPD analysis.
Liquid vapor diffusion Compound A. Liquid vapor diffusion experiments were conducted in different solvent systems. […] This solution was then placed into a 20-mL vial with 3 mL of corresponding anti-solvent. The 20-mL vial was sealed with a cap and kept at RT allowing sufficient time for organic vapor to interact with the solution. The precipitates were isolated for XRPD analysis.

[4] = solvent DMSO, anti-solvent EtOAc
[5] = solvent EtOH, anti-solvent MTBE
[6] = solvent THF, anti-solvent n-Heptane

C=CC(=O)N1CCN(c2nc(OC[C@@H]3CCCN3C)nc3c(F)c(-c4nc(N)cc(C)c4C(F)(F)F)c(Cl)cc23)[C@@H](C)C1 [Compound A Form A]
Result (Anti-solvent addition; solvent 2-MeTHF, anti-solvent n-Heptane): Gel
Result (Anti-solvent addition; solvent DCM, anti-solvent MTBE): Compound A Form A
Result (Anti-solvent addition; solvent DCM, anti-solvent Toluene): Compound A Form B
Result (Anti-solvent addition; solvent DCM, anti-solvent n-Heptane): Compound A Form A
Result (Anti-solvent addition; [4]): Clear
Result (Anti-solvent addition; solvent EtOH, anti-solvent Anisole): Clear solution
Result (Anti-solvent addition; [5]): Gel
Result (Anti-solvent addition; solvent EtOH, anti-solvent n-Heptane): Compound A Form A
Result (Anti-solvent addition; solvent MeOH, anti-solvent MTBE): Gel
Result (Anti-solvent addition; solvent MeOH, anti-solvent Toluene): Compound A Form A
Result (Anti-solvent addition; solvent THF, anti-solvent EtOAc): Compound A Form A
Result (Anti-solvent addition; solvent THF, anti-solvent MTBE): Compound A Form A
Result (Anti-solvent addition; solvent THF, anti-solvent Toluene): Compound A Form A
Result (Anti-solvent addition; [6]): Compound A Form A
Slurry conversion result (XRPD form) ([1]; 50° C.): Compound A Form A was obtained
Result ([1]; Compound A slurry at 50° C., Anisole): Compound A Form A
Result ([1]; Compound A slurry at 50° C., CPME): Compound A Form A
Result ([1]; Compound A slurry at 50° C., EtOAc): Compound A Form A
Result ([1]; Compound A slurry at 50° C., IPAc): Compound A Form A
Result ([1]; Compound A slurry at 50° C., MIBK): Compound A Form A
Result ([1]; Compound A slurry at 50° C., MTBE): Compound A Form A
Result ([1]; Compound A slurry at 50° C., Toluene): Compound A Form A
Result ([1]; Compound A slurry at 50° C., n-Heptane): Compound A Form A
Result ([1]; Compound A slurry at RT, 1,4-Dioxane): Compound A Form A
Result ([1]; Compound A slurry at RT, 1,4-Dioxane/IPAc, 1:3): Compound A Form A
Result ([1]; Compound A slurry at RT, 1,4-Dioxane/n-Heptane, 1:3): Compound A Form A
Result ([1]; Compound A slurry at RT, 2-MeTHF/Toluene, 1:4): Compound A Form A
Result ([1]; Compound A slurry at RT, ACN): Compound A Form A
Result ([1]; Compound A slurry at RT, Acetone): Compound A Form A
Result ([1]; Compound A slurry at RT, Acetone/Anisole, 1:3): Compound A Form A
Result ([1]; Compound A slurry at RT, Acetone/n-Heptane, 1:3): Compound A Form A
Result ([1]; Compound A slurry at RT, DCM/IPA, 1:4): Compound A Form A
Result ([1]; Compound A slurry at RT, DMSO/H2O, 1:6): Clear solution
Result ([1]; Compound A slurry at RT, EtOH/n-Heptane, 1:6): Compound A Form A
Result ([1]; Compound A slurry at RT, H2O): Clear solution
Result ([1]; Compound A slurry at RT, H2O/ACN, 1:4): Gel
Result ([1]; Compound A slurry at RT, H2O/IPA, 1:4): Gel
Result ([1]; Compound A slurry at RT, IPA): Compound A Form A
Result ([1]; Compound A slurry at RT, MEK): Compound A Form A
Result ([1]; Compound A slurry at RT, MEK/MTBE, 1:3): Compound A Form A
Result ([1]; Compound A slurry at RT, MEK/n-Heptane, 1:3): Compound A Form A
Result ([1]; Compound A slurry at RT, MeOH/CPME, 1:6): Compound A Form A
Result ([1]; Compound A slurry at RT, THF/H2O, 1:6): Clear solution
Slurry conversion result (XRPD form) ([1]; RT): adipate Type A was obtained
Form change after heating [2]: very slight differences were observed before and after heating
Result (Slow evaporation; 2-MeTHF): Gel
Result (Slow evaporation; Acetone): Gel
Result (Slow evaporation; DCM): Gel
Result (Slow evaporation; EtOH): Gel
Result (Slow evaporation; H2O): Clear solution
Result (Slow evaporation; MeOH): Gel
Result (Slow evaporation; THF): Gel
Form after exposure to ambient humidity [3]: Compound A Form D was formed
Result (Liquid vapor diffusion; [4]): Clear solution
Result (Liquid vapor diffusion; [5]): Gel
Result (Liquid vapor diffusion; solvent EtOH, anti-solvent n-Pentane): Gel
Result (Liquid vapor diffusion; solvent H2O, anti-solvent ACN): Gel
Result (Liquid vapor diffusion; solvent H2O, anti-solvent IPA): Gel
Result (Liquid vapor diffusion; solvent THF, anti-solvent MTBE): Gel
Result (Liquid vapor diffusion; [6]): Amorphous
